These results are taken from patent US10752647B2, “N-phosphonoxymethyl prodrugs of hydroxyalkyl thiadiazole derivatives” (DAIICHI SANKYO COMPANY, LIMITED, priority 2017, dated 2020).

Data set [1] is described as follows: Solubility of parent compounds and prodrugs in phosphate buffer. The data set is classed as physicochemical. The settings on record: aqueous buffer, thermodynamic from solid, 25° C., more than 4 weeks, pH 7.0. The protocol: Parent compounds: About 5 mg of parent compounds (biologically active forms of prodrugs) were added to 950 μL of phosphate buffer, and mixed vigorously for 1 hour at 25° C. Then, these samples were stored at 25° C. for more than 4 weeks and filtered to remove undissolved parent compounds. Next, these solutions were diluted with 50% aqueous acetonitrile solution. The resulting test solutions were assayed by HPLC. Prodrugs: About 30 mg of prodrugs were added to 120 μL of phosphate buffer, and mixed vigorously for 1 hour at 25° C. After shaking, pH of these solutions were adjusted at pH 7.0 by 1 mol/L NaOH solution. Then, the total volume were adjusted to 280 μL with purified water. Next, these solutions were stored at 25° C. for more than 4 weeks and filtered to remove undissolved compounds. These solutions were diluted with 50% aqueous acetonitrile solution. The resulting test solutions were assayed by HPLC.

Data set [2] can be described thus: Solubility in Japanese Pharmacopeia First Fluid (JP1) and Second Fluid (JP2). It is filed as physicochemical. The settings on record: thermodynamic from solid, room temperature. The protocol:
Method of Testing Solubility in Water and Neutral Buffer A 10 mmol/L solution of the test compound was prepared in DMSO and dispensed 100 μL of 10 mmol/L DMSO stock solutions into labeled glass tubes in duplicate, one for Japanese Pharmacopeia First Fluid (JP1) and second for Japanese Pharmacopeia Second Fluid (JP2). After evaporation of DMSO from each tube, 500 μL of JP1 and JP2 fluid were added in each tube, respectively. These tubes were sonicated for 1 minute and placed on shaker for 30 minutes with an interval of 30 seconds at every 5 minute. Tubes were placed in dark at room temperature for 1 hour and solution was filtered through membrane filter. The filtrate was diluted 2-fold and 10-fold. The resulting test solutions was analyzed and quantified against the standards using UPLC (standard preparation-10 mmol/L solution in DMSO is serially diluted with 50% aqueous acetonitrile solution to prepare 2 solutions; 100 μmol/L standard solution and 5 μmol/L standard solutions).

Data set [3] has as its system Clostridium difficile 2009155, a NAP1/027 strain. The data set is described as follows: Hamster CDI model. The data set is classed as in vivo. To be noted: 0.3 mg/kg/day for 5 days. The protocol: d) Method for Testing Therapeutic Effect of Compounds in Hamster CDI Model
The in vivo efficacy of Compound No. 1 was evaluated in a hamster CDI model caused by Clostridium difficile 2009155, a NAP1/027 strain. The Syrian hamsters (7-9 weeks old, National Centre for Laboratory Animal Sciences, National Institute Nutrition, Hyderabad, India.) were acclimatized at least 7 days prior the experiment. Hamsters primed with a single subcutaneous injection of clindamycin (30 mg/kg) 1 day prior to infection. Hamsters were infected by oral gavage with 1 mL of spore suspension (2-3×10^5) prepared in PBS. The test compounds were prepared using the 0.25 w/v % Methyl Cellulose Solution for oral administration and 10% HP ß-CD for SC administration and treatment was started 6 h post infection at an interval of 24 h for 5 days. Hamsters were administered a dose of 0.03-0.3 mg/kg/day for 5 days. The death and survival time of the hamsters treated with test compound administered group and non-treated group (vehicle-control) were recorded once daily for 35 days and were compared. A change in the survival time was used as an index of therapeutic effect.

Where [4] appears, read: parent compound, phosphate buffer.
Setting [5] is: pH 1.2, simulated gastric fluid, Japanese Pharmacopeia First Fluid (JP1), read-out: Solubility JP1.
Where [6] appears, read: pH 6.8, aqueous buffer, Japanese Pharmacopeia Second Fluid (JP2), read-out: Solubility JP2.
Setting [7] is: prodrug, phosphate buffer adjusted with NaOH.

In brackets after ≈: the same amount, converted by molar mass. Read-outs that look alike come from different tables or passages of the source. Where only a bound is given, the exact number is not on record here.

By solubility is commonly meant the concentration that dissolves in the medium under given conditions. For the compound `CCc1[nH]c(C(=O)N[C@@H]2CCN(c3nnc([C@](C)(O)CO)s3)C[C@@H]2OC)nc1Cl` [Compound A, 4-chloro-N-[(3S,4R)-1-{5-[(2R)-1,2-dihydroxypropan-2-yl]-1,3,4-thiadiazol-2-yl}-3-methoxypiperidin-4-yl]-5-ethyl-1H-imidazole-2-carboxamide], the solubility in data set [1] (setting [4]) was 0.775 mg/mL (≈ 1740 µM).
Consider `CCc1[nH]c(C(=O)N[C@@H]2CCN(c3nnc([C@@H](O)CO)s3)C[C@@H]2OC)nc1Cl` [Compound B, 4-chloro-N-[(3S,4R)-1-{5-[(1S)-1,2-dihydroxyethyl]-1,3,4-thiadiazol-2-yl}-3-methoxypiperidin-4-yl]-5-ethyl-1H-imidazole-2-carboxamide], for which the solubility in data set [1] (setting [4]) was found to be 0.38 mg/mL (≈ 882 µM).
Take `CCc1nc(C(=O)N[C@@H]2CCN(c3nnc(C(C)(C)O)s3)C[C@@H]2OC)n(COP(=O)(O)O)c1Cl` [Compound No. 2, [5-Chloro-4-ethyl-2-({(3S,4R)-1-[5-(2-hydroxypropan-2-yl)-1,3,4-thiadiazol-2-yl]-3-methoxypiperidin-4-yl}carbamoyl)-1H-imidazol-1-yl]methyl dihydrogen phosphate]: the solubility at 30 min in data set [2] (setting [5]) is more than 1.12 mg/mL; in data set [2] (setting [6]), more than 1.09 mg/mL. Also, the “Survival on day 35” value in data set [3] is on record as 100%.
In the case of `CCc1c(Cl)nc(C(=O)N[C@@H]2CCN(c3nnc([C@](C)(O)CO)s3)C[C@@H]2OC)n1COP(=O)(O)O` [Compound No. 3, (4-Chloro-2-{[(3S,4R)-1-{5-[(2R)-1,2-dihydroxypropan-2-yl]-1,3,4-thiadiazol-2-yl}-3-methoxypiperidin-4-yl]carbamoyl}-5-ethyl-1H-imidazol-1-yl)methyl dihydrogen phosphate], the figures for the solubility at 30 min in data set [2] (setting [5]) and in data set [2] (setting [6]) were more than 1.35 mg/mL and more than 1.32 mg/mL, respectively. The solubility in data set [1] (setting [7]) worked out at 107 mg/mL.
As to `CCc1nc(C(=O)N[C@@H]2CCN(c3nnc([C@](C)(O)CO)s3)C[C@@H]2OC)n(COP(=O)(O)O)c1Cl` [Compound No. 4, (5-Chloro-2-{[(3S,4R)-1-{5-[(2R)-1,2-dihydroxypropan-2-yl]-1,3,4-thiadiazol-2-yl}-3-methoxypiperidin-4-yl]carbamoyl}-4-ethyl-1H-imidazol-1-yl)methyl dihydrogen phosphate], the solubility at 30 min in data set [2] (setting [5]) was more than 1.28 mg/mL; in data set [2] (setting [6]) it was more than 1.51 mg/mL. In addition, the solubility in data set [1] (setting [7]) amounted to 102 mg/mL.
On to `CCc1c(Cl)nc(C(=O)N[C@@H]2CCN(c3nnc([C@H](C)O)s3)C[C@@H]2OC)n1COP(=O)(O)O` [Compound No. 5, (4-Chloro-5-ethyl-2-{[(3S,4R)-1-{5-[(1S)-1-hydroxyethyl]-1,3,4-thiadiazol-2-yl}-3-methoxypiperidin-4-yl]carbamoyl}-1H-imidazol-1-yl)methyl dihydrogen phosphate], for which the solubility in data set [1] (setting [7]) came to 101 mg/mL.
On the same count and under the same terms, next, `CCc1nc(C(=O)N[C@@H]2CCN(c3nnc([C@H](C)O)s3)C[C@@H]2OC)n(COP(=O)(O)O)c1Cl` [Compound No. 6, (5-Chloro-4-ethyl-2-{[(3S,4R)-1-{5-[(1S)-1-hydroxyethyl]-1,3,4-thiadiazol-2-yl}-3-methoxypiperidin-4-yl]carbamoyl}-1H-imidazol-1-yl)methyl dihydrogen phosphate]: 104 mg/mL; `CCc1c(Cl)nc(C(=O)N[C@@H]2CCN(c3nnc([C@H](O)CO)s3)C[C@@H]2OC)n1COP(=O)(O)O` [Compound No. 7, (4-Chloro-2-{[(3S,4R)-1-{5-[(1R)-1,2-dihydroxyethyl]-1,3,4-thiadiazol-2-yl}-3-methoxypiperidin-4-yl]carbamoyl}-5-ethyl-1H-imidazol-1-yl)methyl dihydrogen phosphate]: 107 mg/mL.
On to `CCc1nc(C(=O)N[C@@H]2CCN(c3nnc([C@H](O)CO)s3)C[C@@H]2OC)n(COP(=O)(O)O)c1Cl` [Compound No. 8, (5-Chloro-2-{[(3S,4R)-1-{5-[(1R)-1,2-dihydroxyethyl]-1,3,4-thiadiazol-2-yl}-3-methoxypiperidin-4-yl]carbamoyl}-4-ethyl-1H-imidazol-1-yl)methyl dihydrogen phosphate], for which, in data set [1] (setting [7]), the solubility turned out to be 102 mg/mL.
The same measure, in the same setting: for `CCc1nc(C(=O)N[C@@H]2CCN(c3nnc([C@@H](O)CO)s3)C[C@@H]2OC)n(COP(=O)(O)O)c1Cl` [Compound No. 10, (5-Chloro-2-{[(3S,4R)-1-{5-[(1S)-1,2-dihydroxyethyl]-1,3,4-thiadiazol-2-yl}-3-methoxypiperidin-4-yl]carbamoyl}-4-ethyl-1H-imidazol-1-yl)methyl dihydrogen phosphate] the value was 105 mg/mL.
